The results in this text go back to ChEMBL document CHEMBL1201862, “PubChem BioAssay data set” (2004).

The structures appear in SMILES notation.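 A five-concentration, 48-hour dose response in 96-well plates underlies each endpoint, interpolated linearly between surrounding concentrations. GI50 is the concentration that inhibits growth by half.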 The source made the active and inactive calls. Cut-off read from the data, not from the text of the source: active = GI50 up to about 1.1 µM and inactive = higher.

Among the test systems are LXFL 529; RXF 393; NCI-H522; SW-620; EKVX; HL-60; SNB-75; 786-0; SK-OV-3; KM12; M14; TK-10; SK-MEL-28; A549; HOP-92; UO-31; A498; SF-539.
What all share (assay): growth of human tumour cells (NCI), 48 h

With `O=C(O)C12C3CCC(C3)C1(C(=O)O)C1CCC2C1` (configuration not stated), the GI50 with LXFL 529 is > 100 µM (inactive); in the assay with RXF 393, 34.4 µM (inactive); with NCI-H522 it was 14.7 µM (inactive); in the assay with SW-620 it was 18.4 µM (inactive); in the assay with EKVX it was > 100 µM (inactive); with HL-60, 39.6 µM (inactive). The GI50 with SNB-75, in the assay with 786-0, in the assay on SK-OV-3, with KM12, in the assay with M14 and in the assay with TK-10 was > 100 µM (inactive) in each case. The GI50 in the assay on SK-MEL-28, in the assay with A549, in the assay on HOP-92, in the assay on UO-31 and in the assay with A498 was > 100 µM (inactive) each time.

Take `Cc1ccc2[nH]c3c4c5ccccc5nc-4c[nH]c3c2c1`: the GI50 with LXFL 529 is 19.2 µM (inactive); in the assay on RXF 393 it was 13.8 µM (inactive); with NCI-H522, 21.5 µM (inactive); with SW-620 it was 13.7 µM (inactive); in the assay with EKVX, 15.2 µM (inactive); in the assay on HL-60, 16.6 µM (inactive). The GI50 in the assay with SNB-75 was 14.9 µM (inactive); in the assay on 786-0, 17.1 µM (inactive); with SK-OV-3, 12.6 µM (inactive); with KM12, 15.6 µM (inactive); in the assay on M14, 18.2 µM (inactive); with TK-10, 21 µM (inactive). Also, the GI50 was 17.7 µM (inactive) in the assay on SK-MEL-28, 17.2 µM (inactive) in the assay on A549, 16.7 µM (inactive) in the assay on UO-31 and 16.9 µM (inactive) in the assay with SF-539.

Turning to `COC(=O)C1=Cc2cc(OC)c(OC)cc2[C@H](c2ccc(OC)c(OC)c2)C1C(=O)OC` (some centres not stated), the GI50 in the assay on LXFL 529, in the assay with RXF 393, in the assay on SW-620, with EKVX, in the assay with HL-60 and with SNB-75 was > 100 µM (inactive) throughout. Further, the GI50 in the assay with 786-0, in the assay with SK-OV-3, in the assay on KM12, with M14, with TK-10 and in the assay on SK-MEL-28 was > 100 µM (inactive) each time. The GI50 in the assay on A549 was > 100 µM (inactive); in the assay with HOP-92, 45.8 µM (inactive); with UO-31, > 100 µM (inactive); with SF-539, 69.8 µM (inactive); in the assay on A498 it was > 100 µM (inactive).

Turning to `CCCOc1ccc(/C=C/c2cc(OC)c(OC)c(OC)c2)cc1`, the GI50 in the assay with LXFL 529 is 0.558 µM (active); with RXF 393, 0.254 µM (active); in the assay with NCI-H522 it was 0.175 µM (active); in the assay on SW-620 it was 0.218 µM (active); in the assay on EKVX, 6.53 µM (inactive); with HL-60, 0.155 µM (active). In addition, the GI50 was 0.266 µM (active) in the assay on SNB-75; 0.481 µM (active) with 786-0; 0.305 µM (active) in the assay with KM12; 0.252 µM (active) with M14; 55.1 µM (inactive) in the assay on TK-10; 8.75 µM (inactive) in the assay with SK-MEL-28. For the same compound, the GI50 is 0.452 µM (active) in the assay with A549; 0.347 µM (active) in the assay on HOP-92; 0.482 µM (active) in the assay on UO-31; 0.269 µM (active) with SF-539; 1.08 µM (active) in the assay with A498.

For `Oc1ccc(-c2n[nH]c(S)n2)cc1`, the GI50 is > 100 µM (inactive) in the assay on LXFL 529; > 100 µM (inactive) in the assay with NCI-H522; > 100 µM (inactive) in the assay with SW-620; > 100 µM (inactive) in the assay with EKVX; > 100 µM (inactive) in the assay on HL-60; 87.5 µM (inactive) with SNB-75. Also, the GI50 in the assay on 786-0, in the assay on SK-OV-3, with KM12, in the assay on M14, in the assay on TK-10 and with SK-MEL-28 was > 100 µM (inactive) in each case. Further, the GI50 with A549, in the assay on HOP-92, in the assay on UO-31, in the assay with SF-539 and in the assay on A498 was > 100 µM (inactive) in each case.

As for `Cc1ccc(/C=C(\NC(=O)c2ccccc2)c2nc3ccccc3[nH]2)cc1`, the GI50 was 32.2 µM (inactive) in the assay with LXFL 529; > 100 µM (inactive) in the assay with RXF 393; 42.2 µM (inactive) with NCI-H522; 50.4 µM (inactive) in the assay with SW-620; 74.5 µM (inactive) in the assay on EKVX; 23.9 µM (inactive) in the assay on HL-60. The GI50 with 786-0 is 39.3 µM (inactive); with KM12, 40.6 µM (inactive); with M14, 50 µM (inactive); in the assay on TK-10 it was > 100 µM (inactive); in the assay on SK-MEL-28, 71.9 µM (inactive); in the assay with A549 it was 42.7 µM (inactive). Besides, the GI50 in the assay with HOP-92 is 28.3 µM (inactive); with UO-31, 48.9 µM (inactive); with SF-539 it was > 100 µM (inactive); in the assay with A498 it was 38 µM (inactive).

As for `O=C(c1ccco1)N(C(=S)N1CCN(c2ccccc2)CC1)c1ccccc1`, the GI50 in the assay with LXFL 529, in the assay with RXF 393, in the assay with NCI-H522, with SW-620, in the assay with HL-60 and in the assay on SNB-75 was > 100 µM (inactive) throughout. The GI50 with 786-0, in the assay on SK-OV-3, in the assay with KM12, in the assay on M14, with TK-10 and with SK-MEL-28 was > 100 µM (inactive) throughout. In addition, the GI50 in the assay with A549 is > 100 µM (inactive); in the assay with HOP-92 it was > 100 µM (inactive); in the assay with UO-31, 66.8 µM (inactive); in the assay with SF-539, > 100 µM (inactive).

With `CCOC(=O)C(=O)Nc1ccc([N+](=O)[O-])cc1C#N`, the GI50 in the assay with LXFL 529, in the assay on RXF 393, in the assay with NCI-H522, with SW-620, in the assay with EKVX and with HL-60 was > 100 µM (inactive) throughout. Besides, the GI50 in the assay on 786-0, with SK-OV-3, in the assay on KM12, in the assay on M14, in the assay with TK-10 and in the assay with SK-MEL-28 was > 100 µM (inactive) throughout. In addition, the GI50 in the assay on A549, with HOP-92, in the assay with UO-31 and with SF-539 was > 100 µM (inactive) each time.

With `Cc1cccc(N2C(=O)/C(=C/c3ccc(N(CCC#N)CCC#N)cc3C)N=C2c2cc([N+](=O)[O-])ccc2Cl)c1`, the GI50 with LXFL 529 was > 100 µM (inactive); with NCI-H522 it was > 100 µM (inactive); in the assay with SW-620 it was > 100 µM (inactive); in the assay with EKVX, 68.1 µM (inactive); in the assay with HL-60 it was 74 µM (inactive); in the assay on SNB-75, > 100 µM (inactive). Besides, the GI50 with 786-0, in the assay with SK-OV-3, in the assay with KM12, in the assay with M14, with TK-10 and in the assay with SK-MEL-28 was > 100 µM (inactive) each time. The GI50 in the assay with A549, in the assay with HOP-92, in the assay on UO-31, in the assay with SF-539 and in the assay on A498 was > 100 µM (inactive) each time.

Consider `COC(=O)c1cc2c3c(ccc2[nH]1)N(C(=O)c1cc2c4c(ccc2[nH]1)N(C(=O)c1cc2c5c(ccc2[nH]1)N(C(N)=O)CC5)CC4)CC3`, for which the GI50 was 2.07 µM (inactive) with LXFL 529; 2.17 µM (inactive) in the assay with RXF 393; 1.61 µM (inactive) with NCI-H522; 7.85 µM (inactive) in the assay with SW-620; 2.17 µM (inactive) in the assay with EKVX; 6.62 µM (inactive) with HL-60. Moreover, the GI50 with SNB-75 was 2.11 µM (inactive); with 786-0, 3.05 µM (inactive); in the assay on SK-OV-3 it was 2.1 µM (inactive); in the assay on KM12, 6.82 µM (inactive); with M14, 1.87 µM (inactive); in the assay on TK-10, 13.1 µM (inactive). Also, the GI50 is 3 µM (inactive) with A549; 2.03 µM (inactive) in the assay with HOP-92; 3.94 µM (inactive) with UO-31; 3.6 µM (inactive) with SF-539; 1.29 µM (inactive) in the assay with A498.

For the compound `CCO[C@]12C[C@H](OC)[C@@]3(O)CC(C1[C@H]3OCc1ccccc1)C13C4C2[C@H](OC)C1[C@](COC)(CN4CC)[C@H](O)C[C@@H]3OC` (some centres not stated), the GI50 with LXFL 529, in the assay with RXF 393, in the assay on SW-620, in the assay on EKVX, with HL-60 and in the assay on SNB-75 was > 100 µM (inactive) in each case. Moreover, the GI50 with 786-0 is 7.38 µM (inactive); in the assay with SK-OV-3, > 100 µM (inactive); in the assay on M14, > 100 µM (inactive); with TK-10, > 100 µM (inactive); with SK-MEL-28, > 100 µM (inactive); with A549, > 100 µM (inactive). The GI50 with UO-31 and in the assay with SF-539 was > 100 µM (inactive) each time.

On to `COC(=O)C1CC(C(=O)OC)c2nc3cc(C)ccc3nc21` (configuration not stated), for which the GI50 with LXFL 529, with NCI-H522, in the assay with SW-620, with EKVX, in the assay with HL-60 and in the assay on SNB-75 was > 100 µM (inactive) in each case. Moreover, the GI50 in the assay on 786-0, with SK-OV-3, with KM12, with M14, in the assay on TK-10 and in the assay on SK-MEL-28 was > 100 µM (inactive) each time. The GI50 in the assay on A549, with HOP-92, in the assay with UO-31, with SF-539 and with A498 was > 100 µM (inactive) in each case.
